Data on four compounds can be found in patent publication US20170216295A1, “CCR9 ANTAGONIST COMPOUNDS” (Merck Sharp & Dohme Corp., priority 2014, published 2017).

A short description of data set [1]: pH-solubility (high-throughput, buffers). The format is physicochemical. The conditions noted are these: for solubility at 24 h: aqueous with cosolvent or surfactant or cyclodextrin, kinetic from dmso stock; for Sol. pH 4: 1000 ug compound in 1 mL pH 4 buffer; for Sol. pH 7: 1000 ug compound in 1 mL pH 7 buffer; for Sol. pH 9: 1000 ug compound in 1 mL pH 9 buffer. How it is done: Solubility of representative acidic triazoles was measured in 3 buffer systems (pH 4, 7.4 and 9) using an in-house high-throughput solubility method. A stock solution of test article was prepared in DMA (20 mg/ml) and spiked into each buffer system (20× dilution) to target 1 mg/ml concentration. The samples were vortexed briefly and equilibrated for 24 hr at RT. Samples were then filtered using 0.22u PVDF membrane filters and analyzed for drug concentration using HPLC.

Data set [2] can be described thus: Rat PK (i.v./p.o.). Conditions: for clearance: iv, read-out: Rat In vivo CL. The format is in vivo. As to the method:
Sprague Dawley Rats (n=3) were dosed both intravenously and orally with a solution formulation followed by plasma collection at time points providing sufficient coverage of the absorption, distribution, metabolism and excretion phases of the test article. Test article concentrations at each time point were determined by LC-MS detected bioanalytical analysis. Non-compartmental pharmacokinetic analysis of the intravenous bioanalytical data provided area under the curve, clearance, volume of distribution, and terminal half life parameters while similar analysis of plasma samples from animals dosed orally provided area under the curve, bio-available fraction and oral terminal half life pharmacokinetic parameters.
Rats (n of 3) were dosed both intravenously and orally with the various compounds. Plasma samples were collected at time points chosen to provide sufficient coverage of the absorption, distribution, metabolism and excretion phases of the test compound. LC-MS detected bioanalytical analysis was performed on the plasma samples utilizing a standard curve and quality control samples to provide enough precision and accuracy to determine the concentrations test article for plasma from each time point. Non-compartmental pharmacokinetic analysis of the intravenous bioanalytical data provided area under the curve, clearance, volume of distribution, terminal half life parameters while similar analysis of plasma samples from animals dosed orally provided area under the curve, bio-available fraction and oral terminal half life pharmacokinetic parameters (see FIG. 1).

Data set [3] can be described thus: Rat plasma protein binding (equilibrium dialysis). Conditions: read-out: Rat Plasma Protein Binding (PPB) Fu. Format: in vitro ADME. How it is done:
(§1) Plasma and Microsome Protein Binding:
(§2) Protein binding was measured via high throughput equilibrium dialysis with the HTDialysis device fitted with a 12,000 to 14,000 Da molecular weight cutoff membrane. Rat plasma or 1 mg/mL rat hepatic microsomes spiked with test article were dialyzed vs. phosphate buffer for 6 hours. Aliquots were removed from both sides of the membrane and diluted with equal volumes of the opposite matrix. Following protein precipitation and centrifugation, the resultant matrix matched supernatants were analyzed by LC-MS to compare the plasma or microsome dialysate test article signal to the buffer signal. Test article stability was monitored during the course of the assay.
For orientation: In equilibrium dialysis free small molecules cross a membrane that holds back macromolecules.

Data set [4] is described as follows: In-vitro precipitation time in simulated gastric and intestinal fluids. Format: physicochemical. The conditions noted are these: oral dosing solution. How it is done:
Dosing solutions at 1 mg/mL for rat PK studies were prepared using either a pH+co-solvent approach or pH+cosolvent+surfactant approach. The total amounts of cosolvent and surfactant used in the solution formulations ranged from 5-8% v/v and q.s. with pH 9 phosphate buffer. Solutions were assessed for their potential for in-vivo precipitation using an in-vitro dilution test (1:1, 1:4 and 1:9) in simulated gastric and intestinal fluids.

Data set [5] in a line: Rat liver microsome clearance. The conditions noted are these: for CLint scaled at 2 μM: rat liver microsomes, 1 mg/mL rat hepatic microsomes, NADPH, read-out: Rat Microsome In Vitro CLint; for RLM CL (rat liver microsome hepatic clearance): first value of RLM/HLM cell. The format is in vitro ADME. How it is done: Microsomal In-Vitro Clearance:
The test articles (2 μM) were incubated for one hour in 1 mg/mL rat hepatic microsomes with 2 mM NADPH at 37° C. with aliquots removed at t=0, 15, 30 and 60 minutes. Incubations were terminated at the specified times by protein precipitation, and samples were centrifuged. Resultant supernants were analyzed by LC-MS/MS for the amount of incubated compound remaining, and the half life (t1/2) and intrinsic microsomal clearance rate (CLint) of each compound was calculated.
(In general: Microsomes from liver hold many membrane-bound enzymes, among them those of drug oxidation.)

The nature of data set [6]: Rat microsome protein binding (equilibrium dialysis). Conditions: rat liver microsomes, 1 mg/mL rat hepatic microsomes, read-out: Rat Microsomal Binding Fu. The format is in vitro ADME. How it is done:
as §1, §2

In data set [7] the target is T1, CCR9 receptor (Homo sapiens, UniProt P51686).
T1 sequence (P51686 1-369): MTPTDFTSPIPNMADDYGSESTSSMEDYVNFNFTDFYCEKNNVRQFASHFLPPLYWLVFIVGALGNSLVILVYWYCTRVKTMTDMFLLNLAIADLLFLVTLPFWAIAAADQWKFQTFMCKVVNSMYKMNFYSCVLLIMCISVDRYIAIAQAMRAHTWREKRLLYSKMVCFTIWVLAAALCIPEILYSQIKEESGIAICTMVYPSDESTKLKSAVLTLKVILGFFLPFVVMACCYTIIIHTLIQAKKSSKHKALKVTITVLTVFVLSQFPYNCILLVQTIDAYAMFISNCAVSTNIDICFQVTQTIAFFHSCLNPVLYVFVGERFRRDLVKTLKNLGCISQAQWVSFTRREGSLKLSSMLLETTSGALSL
The data set is described as follows: Calcium mobilization (Ca FLIPR) assay, antagonist mode vs TECK. Format: cell-based. The conditions noted are these: for LipE: LipE = pIC50-clogD; for IC50: cells expressing CCR9, TECK at EC80 0.01 uM, read-out: CCR9 Ca2+ IC50. As to the method:
Calcium Mobilization Assay:
Cells expressing CCR9 receptor (MultiSpan, Hayward, Calif.) were seeded in 384-well plates. Ca^2+ assays were conducted after overnight culture in the plates according to the manufacturer's protocol using Screen Quest™ Fluo-8 no wash kit (AAT Bioquest, Sunnyvale, Calif.). Dye loading buffer was added to the cells and incubated for 45 minutes at 37° C. followed by 15 minutes incubation at room temperature. Compounds in the presence of 0.1% DMSO were applied to the cells during calcium flux measurement. Calcium flux was monitored for 90 seconds with compound application after 10 seconds. For antagonist mode, cells were preincubated with the compound at room temperature for 10 minutes before the application of the control agonist TECK (Preprotech, Rocky Hill, N.J.) at EC80 concentration of 0.01 uM obtained from dose-response curves of control agonist.
Background: Calcium flux is commonly read through the fluorescence of an indicator in the cells.

The test system of data set [8] is Molt-4 cells. The experiment in a line: Chemotaxis assay of Molt-4 cells towards TECK. Conditions: Homo sapiens; Molt-4 cells in HBSS buffer with 0.1% BSA; TECK at EC80. Format: cell-based. As to the method:
Molt-4 cells were harvested and re-suspended in HBSS buffer with 0.1% BSA or in 100% human serum. Cell suspensions were mixed with compound solutions for 10 min and then seeded onto the upper chamber of the ChemoTX chemotaxis plates with 5 μm pore size polycarbonate membrane from NeuroProbe (Gaithersburg, Md.). EC80 concentration of TECK was applied in the bottom chamber. After 2 hours of incubation at 37° C., the assay was terminated by removing the upper chamber. The cells migrated into the bottom chamber were quantified with CyQUANT solution from Invitrogen (Grand Island, N.Y.).

The nature of data set [9]: Human liver microsome clearance. Format: in vitro ADME. The conditions noted are these: second value of RLM/HLM cell.

≈ marks a conversion by molar mass, not a printed value. Read-outs that look alike come from different tables or passages of the source. Some results are limits rather than exact numbers.

Regarding `Cc1nc2ncnn2c(O)c1Cc1ccc(C(C)(C)C)cc1` [Compound 6], the solubility at 24 h worked out at 13 µg/mL (≈ 43.9 µM) in data set [1] (pH 4 buffer, pH 4 (Table 6), read-out: Solubility pH 4); 140 µg/mL (≈ 472 µM) in [1] (pH 7.4 buffer, pH 7.4 (Table 6), read-out: Solubility pH 7.4); 1000 µg/mL (≈ 3370 µM) in data set [1] (pH 9 buffer, pH 9 (Table 6), read-out: Solubility pH 9). Moreover, the “Rat In vivo CL as % Hepatic Blood Flow” value in data set [2] amounted to 44%. Further, in data set [2] (Sprague Dawley, plasma), the clearance is 24 mL/min/kg. Moreover, the bioavailability in data set [2] (Sprague Dawley, plasma, oral, 6: co-solvent (pH 9), 39, 40, 42: co-solvent + surfactant (pH 9), read-out: % F (p.o.)) is 12%. Also, in data set [2] (oral, formulation as in Table 6), the “Oral AUC/D” value is on record as 0.08 ug · hr/ml/(mg/kg). Moreover, the fraction unbound at 6 h was determined as 0.01 in data set [3] and 0.703 in data set [6]. Moreover, in data set [4] (simulated gastric fluid), the “In-vitro Precipitation Time (Visual assessment), SGF” value is “SGF: 0 min”. The “In-vitro Precipitation Time (Visual assessment), SIF” value in data set [4] (simulated intestinal fluid) is reported as “SIF: 120 min”. The CLint scaled at 2 μM in data set [5] stood at 717 mL/min/kg. Further, the LipE in data set [7] is 2.4.

Turning to `COCc1nc2ncnn2c(O)c1Cc1ccc(C(C)(C)C)cc1` [Compound 26], in data set [1], the “Sol. pH 4” value is recorded as 3 ug/mL, the “Sol. pH 7” value came out at 135 ug/mL and the “Sol. pH 9” value is on record as more than 1000 ug/mL. Moreover, half-maximal inhibition in data set [8] (IC50) required 42 nM. In data set [2], the “Rat In vivo CL as % Hepatic Blood Flow” value was found to be 10%. For the same compound, in data set [2] (Sprague Dawley, plasma), the clearance is 5 mL/min/kg. For the same compound, the “HLM CL (human liver microsome hepatic clearance)” value (“HLM CL” for short) in data set [9] came out at 8 mL/min/kg. The fraction unbound at 6 h in [3] was 0.01. Also, in data set [5], the “RLM CL (rat liver microsome hepatic clearance)” value (shortened to “RLM CL”) worked out at 48 mL/min/kg and the CLint scaled at 2 μM worked out at 373 mL/min/kg. Besides, in data set [6], the fraction unbound at 6 h worked out at 0.85. The IC50 in [7] came out at 8 nM.

`CC(C)(C)c1ccc(Cc2c(C3CCC3)nc3ncnn3c2O)cc1` [Compound 27]: in data set [1], the “Sol. pH 4” value came to 4 ug/mL, the “Sol. pH 7” value is listed as 58 ug/mL and the “Sol. pH 9” value was 910 ug/mL. The IC50 in [8] worked out at 20 nM. In addition, in data set [2], the “Rat In vivo CL as % Hepatic Blood Flow” value was found to be 32%. The clearance in [2] (Sprague Dawley, plasma) was determined as 17 mL/min/kg. Moreover, the “HLM CL” value in data set [9] was 13 mL/min/kg. Also, the fraction unbound at 6 h in data set [3] was 0.01. Besides, in data set [5], the “RLM CL” value turned out to be 37 mL/min/kg and the CLint scaled at 2 μM is 111 mL/min/kg. Also, the fraction unbound at 6 h in data set [6] is 0.255. The concentration for half-maximal inhibition (IC50) in [7] worked out at 5 nM.

Regarding `CCc1nc2ncnn2c(O)c1Cc1ccc(C(C)(C)C#N)cc1` [Compound 37], in data set [1], the “Sol. pH 4” value is recorded as more than 1000 ug/mL, the “Sol. pH 7” value is given as 994 ug/mL and the “Sol. pH 9” value is recorded as 982 ug/mL. Further, in [8], half-maximal inhibition (IC50) was put at 500 nM. In data set [2], the “Rat In vivo CL as % Hepatic Blood Flow” value is 3%, the “Vd (in words)” value is recorded as “increased”, the “exposure (in words)” value was “highest exposure for the series” and the “half-life (in words)” value is “extended”. For the same compound, the “in vivo CL (in words)” value in data set [2] is listed as “lower”. Further, the clearance in data set [2] (Sprague Dawley, plasma) stood at 1 mL/min/kg. In addition, the “HLM CL” value in data set [9] turned out to be 1 mL/min/kg. Also, the fraction unbound at 6 h in [3] is 0.011. In data set [5], the “metabolic stability (in words)” value was “increased”, the “RLM CL” value came to 7 mL/min/kg and the CLint scaled at 2 μM came out at 8 mL/min/kg. Moreover, the fraction unbound at 6 h in data set [6] came to 0.85. Further, in data set [7], the LipE is 5.6 and the concentration for half-maximal inhibition (IC50) stood at 64 nM.

The term solubility denotes how much of the substance goes into solution per volume. The IC50 is the concentration needed to halve the response being measured.
